Like-named read-outs stand apart in the source and are kept apart here. Bridge positions count the residues as written; N and C are the ends. Square brackets hold non-standard residues; d marks the D form. Peptide text beside a SMILES is read from it. 1Nal = N[C@@H](Cc1cccc2ccccc12)C(=O)O
Tests used:
[1] = tested on: thapsigargin-induced IFN-g production in human whole blood; format: cell-based
[2] = tested on: thapsigargin-induced IL-2 production in human whole blood
[3] = read-out: Analogue Activity (IC50) WB/IFNg
[4] = read-out: Analogue Activity (IC50) WB/IL-2

Compound | IC50 [1, 3] [nM] | IC50 [2, 4] [nM] | IC50 ([1]; read-out: Average IC50 IFNg) [nM] | IC50 ([2]; read-out: Average IC50 IL-2) [nM]
CC[C@H](C)[C@@H]1NC(=O)[C@H](CCCCN)NC(=O)[C@@H](NC(=O)[C@H](CCCCN)NC(=O)[C@@H](NC(=O)[C@H](CC(N)=O)NC(=O)[C@@H](NC(=O)[C@@H](NC(=O)[C@@H](NC(=O)CN)C(C)C)[C@@H](C)CC)[C@@H](C)CC)C(C)C)CSSC[C@@H]2NC(=O)[C@H](CCCCN)NC(=O)CNC(=O)[C@H](Cc3ccccc3)NC(=O)[C@H](Cc3cccc4ccccc34)NC(=O)[C@H](CCSC)NC(=O)CNC(=O)[C@H](C)NC(=O)[C@H](CCCCN)NC(=O)[C@H](CCCCN)NC(=O)[C@@H]3CSSC[C@@H](C(=O)N[C@H](C(=O)N4CCC[C@H]4C(=O)N[C@@H](CCCCN)C(=O)O)[C@@H](C)O)NC(=O)[C@H](Cc4c[nH]cn4)NC(=O)[C@H](CSSC[C@H](NC(=O)[C@H](CCC(N)=O)NC(=O)[C@H](CCCNC(=N)N)NC(=O)[C@H](CO)NC1=O)C(=O)N[C@@H](CC(C)C)C(=O)N[C@@H](CCC(=O)O)C(=O)N1CCC[C@H]1C(=O)N3)NC(=O)[C@H](CCCCN)NC(=O)CNC(=O)[C@H](CC(N)=O)NC(=O)[C@H](CCSC)NC2=O [R24Nal] (H-GVIINVKCKISRQCLEPCKKAGM[1Nal]FGKCMNGKCHCTPK-OH; disulfide 8-28, 14-33, 18-35) | 0.818 | 0.293 |  | 
CC[C@H](C)[C@@H]1NC(=O)[C@H](CCCCN)NC(=O)[C@@H](NC(=O)[C@H](CCCCN)NC(=O)[C@@H](NC(=O)[C@H](CC(N)=O)NC(=O)[C@@H](NC(=O)[C@@H](NC(=O)[C@@H](NC(=O)CN)C(C)C)[C@@H](C)CC)[C@@H](C)CC)C(C)C)CSSC[C@@H]2NC(=O)[C@H](CCCCN)NC(=O)CNC(=O)[C@H](Cc3ccccc3)NC(=O)[C@H](CCCNC(=N)N)NC(=O)[C@H](CCSC)NC(=O)CNC(=O)[C@H](C)NC(=O)[C@H](CCCCN)NC(=O)[C@H](CCCCN)NC(=O)[C@@H]3CSSC[C@@H](C(=O)N[C@H](C(=O)N4CCC[C@H]4C(=O)N[C@@H](CCCCN)C(=O)O)[C@@H](C)O)NC(=O)[C@H](Cc4c[nH]cn4)NC(=O)[C@H](CSSC[C@H](NC(=O)[C@H](CCC(N)=O)NC(=O)[C@H](CCCNC(=N)N)NC(=O)[C@H](CO)NC1=O)C(=O)N[C@@H](CC(C)C)C(=O)N[C@@H](CCC(=O)O)C(=O)N[C@@H](CCCNC(=N)N)C(=O)N3)NC(=O)[C@H](CCCCN)NC(=O)CNC(=O)[C@H](CC(N)=O)NC(=O)[C@H](CCSC)NC2=O [P17R] (H-GVIINVKCKISRQCLERCKKAGMRFGKCMNGKCHCTPK-OH; disulfide 8-28, 14-33, 18-35) | 0.355 | 0.202 |  | 
CC[C@H](C)[C@@H]1NC(=O)[C@H](CCCCN)NC(=O)[C@@H](NC(=O)[C@H](CCCCN)NC(=O)[C@@H](NC(=O)[C@H](Cc2cccc3ccccc23)NC(=O)[C@@H](NC(=O)[C@@H](NC(=O)[C@@H](NC(=O)CN)C(C)C)[C@@H](C)CC)[C@@H](C)CC)C(C)C)CSSC[C@@H]2NC(=O)[C@H](CCCCN)NC(=O)CNC(=O)[C@H](Cc3ccccc3)NC(=O)[C@H](CCCNC(=N)N)NC(=O)[C@H](CCSC)NC(=O)CNC(=O)[C@H](C)NC(=O)[C@H](CCCCN)NC(=O)[C@H](CCCCN)NC(=O)[C@@H]3CSSC[C@@H](C(=O)N[C@H](C(=O)N4CCC[C@H]4C(=O)N[C@@H](CCCCN)C(=O)O)[C@@H](C)O)NC(=O)[C@H](Cc4c[nH]cn4)NC(=O)[C@H](CSSC[C@H](NC(=O)[C@H](CCC(N)=O)NC(=O)[C@H](CCCNC(=N)N)NC(=O)[C@H](CO)NC1=O)C(=O)N[C@@H](CC(C)C)C(=O)N[C@@H](CCC(=O)O)C(=O)N1CCC[C@H]1C(=O)N3)NC(=O)[C@H](CCCCN)NC(=O)CNC(=O)[C@H](CC(N)=O)NC(=O)[C@H](CCSC)NC2=O [N5Nal] (H-GVII[1Nal]VKCKISRQCLEPCKKAGMRFGKCMNGKCHCTPK-OH; disulfide 8-28, 14-33, 18-35) | 0.431 | 0.76 |  | 
CC[C@H](C)[C@@H]1NC(=O)[C@H](CCCCN)NC(=O)[C@@H](NC(=O)[C@H](CCCCN)NC(=O)[C@@H](NC(=O)[C@H](CC(N)=O)NC(=O)[C@@H](NC(=O)[C@@H](NC(=O)[C@H](Cc2cccc3ccccc23)NC(=O)CN)[C@@H](C)CC)[C@@H](C)CC)C(C)C)CSSC[C@@H]2NC(=O)[C@H](CCCCN)NC(=O)CNC(=O)[C@H](Cc3ccccc3)NC(=O)[C@H](CCCNC(=N)N)NC(=O)[C@H](CCSC)NC(=O)CNC(=O)[C@H](C)NC(=O)[C@H](CCCCN)NC(=O)[C@H](CCCCN)NC(=O)[C@@H]3CSSC[C@@H](C(=O)N[C@H](C(=O)N4CCC[C@H]4C(=O)N[C@@H](CCCCN)C(=O)O)[C@@H](C)O)NC(=O)[C@H](Cc4c[nH]cn4)NC(=O)[C@H](CSSC[C@H](NC(=O)[C@H](CCC(N)=O)NC(=O)[C@H](CCCNC(=N)N)NC(=O)[C@H](CO)NC1=O)C(=O)N[C@@H](CC(C)C)C(=O)N[C@@H](CCC(=O)O)C(=O)N1CCC[C@H]1C(=O)N3)NC(=O)[C@H](CCCCN)NC(=O)CNC(=O)[C@H](CC(N)=O)NC(=O)[C@H](CCSC)NC2=O [V2Nal] (H-G[1Nal]IINVKCKISRQCLEPCKKAGMRFGKCMNGKCHCTPK-OH; disulfide 8-28, 14-33, 18-35) | 0.524 | 0.75 |  | 
AVIINVKCKISRQCLEPCKKAGMRFGKCMNGKCHCTPK [Ala-1 (SEQ ID No: 1400)] |  |  | 0.119 | 0.122
CC[C@H](C)[C@@H]1NC(=O)[C@H](CCCCN)NC(=O)[C@@H](NC(=O)[C@H](CCCCN)NC(=O)[C@@H](NC(=O)[C@H](CC(N)=O)NC(=O)[C@@H](NC(=O)[C@H](CCCNC(=N)N)NC(=O)[C@@H](NC(=O)CN)C(C)C)[C@@H](C)CC)C(C)C)CSSC[C@@H]2NC(=O)[C@H](CCCCN)NC(=O)CNC(=O)[C@H](Cc3ccccc3)NC(=O)[C@H](CCCNC(=N)N)NC(=O)[C@H](CCSC)NC(=O)CNC(=O)[C@H](C)NC(=O)[C@H](CCCCN)NC(=O)[C@H](CCCCN)NC(=O)[C@@H]3CSSC[C@@H](C(=O)N[C@H](C(=O)N4CCC[C@H]4C(=O)N[C@@H](CCCCN)C(=O)O)[C@@H](C)O)NC(=O)[C@H](Cc4c[nH]cn4)NC(=O)[C@H](CSSC[C@H](NC(=O)[C@H](CCC(N)=O)NC(=O)[C@H](CCCNC(=N)N)NC(=O)[C@H](CO)NC1=O)C(=O)N[C@@H](CC(C)C)C(=O)N[C@@H](CCC(=O)O)C(=O)N1CCC[C@H]1C(=O)N3)NC(=O)[C@H](CCCCN)NC(=O)CNC(=O)[C@H](CC(N)=O)NC(=O)[C@H](CCSC)NC2=O [I3R] (H-GVRINVKCKISRQCLEPCKKAGMRFGKCMNGKCHCTPK-OH; disulfide 8-28, 14-33, 18-35) | 0.18 | 0.148 |  | 
CC[C@H](C)[C@@H]1NC(=O)[C@H](CCCCN)NC(=O)[C@@H](NC(=O)[C@H](CCCCN)NC(=O)[C@@H](NC(=O)[C@H](CC(N)=O)NC(=O)[C@@H](NC(=O)[C@@H](NC(=O)[C@@H](NC(=O)CN)C(C)C)[C@@H](C)CC)[C@@H](C)CC)C(C)C)CSSC[C@@H]2NC(=O)[C@H](CCCCN)NC(=O)CNC(=O)[C@H](Cc3ccccc3)NC(=O)[C@H](CCCNC(=N)N)NC(=O)[C@H](CCSC)NC(=O)CNC(=O)[C@H](C)NC(=O)[C@H](CCCCN)NC(=O)[C@H](CCCCN)NC(=O)[C@@H]3CSSC[C@@H](C(=O)N[C@H](C(=O)N4CCC[C@H]4C(=O)N[C@@H](CCCCN)C(=O)O)[C@@H](C)O)NC(=O)[C@H](Cc4c[nH]cn4)NC(=O)[C@H](CSSC[C@H](NC(=O)[C@H](CCC(N)=O)NC(=O)[C@H](CCCNC(=N)N)NC(=O)[C@H](CO)NC1=O)C(=O)N[C@@H](CC(C)C)C(=O)N[C@@H](CCC(=O)O)C(=O)N1CCC[C@H]1C(=O)N3)NC(=O)[C@H](CCCNC(=N)N)NC(=O)CNC(=O)[C@H](CC(N)=O)NC(=O)[C@H](CCSC)NC2=O [K32R] (H-GVIINVKCKISRQCLEPCKKAGMRFGKCMNGRCHCTPK-OH; disulfide 8-28, 14-33, 18-35) | 0.034 | 0.028 |  | 
CC[C@H](C)[C@@H]1NC(=O)[C@H](CCCCN)NC(=O)[C@@H](NC(=O)[C@H](CCCCN)NC(=O)[C@@H](NC(=O)[C@H](CC(N)=O)NC(=O)[C@@H](NC(=O)[C@@H](NC(=O)[C@@H](NC(=O)CN)C(C)C)[C@@H](C)CC)[C@@H](C)CC)C(C)C)CSSC[C@@H]2NC(=O)[C@H](CCCCN)NC(=O)CNC(=O)[C@H](Cc3ccccc3)NC(=O)[C@H](CCCNC(=N)N)NC(=O)[C@H](CCSC)NC(=O)CNC(=O)[C@H](C)NC(=O)[C@H](CCCCN)NC(=O)[C@H](CCCCN)NC(=O)[C@@H]3CSSC[C@@H](C(=O)N[C@H](C(=O)N4CCC[C@H]4C(=O)N[C@@H](CCCCN)C(=O)O)[C@@H](C)O)NC(=O)[C@H](CCCNC(=N)N)NC(=O)[C@H](CSSC[C@H](NC(=O)[C@H](CCC(N)=O)NC(=O)[C@H](CCCNC(=N)N)NC(=O)[C@H](CO)NC1=O)C(=O)N[C@@H](CC(C)C)C(=O)N[C@@H](CCC(=O)O)C(=O)N1CCC[C@H]1C(=O)N3)NC(=O)[C@H](CCCCN)NC(=O)CNC(=O)[C@H](CC(N)=O)NC(=O)[C@H](CCSC)NC2=O [H34R] (H-GVIINVKCKISRQCLEPCKKAGMRFGKCMNGKCRCTPK-OH; disulfide 8-28, 14-33, 18-35) | 0.108 | 0.092 |  | 
CC[C@H](C)[C@@H]1NC(=O)[C@H](CCCCN)NC(=O)[C@@H](NC(=O)[C@H](CCCCN)NC(=O)[C@@H](NC(=O)[C@H](CC(N)=O)NC(=O)[C@@H](NC(=O)[C@@H](NC(=O)[C@@H](NC(=O)CN)C(C)C)[C@@H](C)CC)[C@@H](C)CC)C(C)C)CSSC[C@@H]2NC(=O)[C@H](CCCCN)NC(=O)CNC(=O)[C@H](Cc3ccccc3)NC(=O)[C@H](CCCNC(=N)N)NC(=O)[C@H](CCSC)NC(=O)CNC(=O)[C@H](C)NC(=O)[C@H](CCCCN)NC(=O)[C@H](CCCCN)NC(=O)[C@@H]3CSSC[C@@H](C(=O)N[C@H](C(=O)N4CCC[C@H]4C(=O)N[C@@H](CCCCN)C(=O)O)[C@@H](C)O)NC(=O)[C@H](Cc4c[nH]cn4)NC(=O)[C@H](CSSC[C@H](NC(=O)[C@H](CCC(N)=O)NC(=O)[C@H](CCC(=O)O)NC(=O)[C@H](CO)NC1=O)C(=O)N[C@@H](CC(C)C)C(=O)N[C@@H](CCC(=O)O)C(=O)N1CCC[C@H]1C(=O)N3)NC(=O)[C@H](CCCCN)NC(=O)CNC(=O)[C@H](CC(N)=O)NC(=O)[C@H](CCSC)NC2=O [R12E] (H-GVIINVKCKISEQCLEPCKKAGMRFGKCMNGKCHCTPK-OH; disulfide 8-28, 14-33, 18-35) | 2 | 1.79 |  | 

— US7820623B2 (priority 2006, dated 2010)
